The values below come from ChEMBL document CHEMBL5360534, “Synthetic α-glucosidase inhibitors as promising anti-diabetic agents: Recent developments and future challenges” (Eur J Med Chem, 2023).

Assay [1] is described as follows: Inhibition of alpha-glucosidase (unknown origin) using p-nitrophenyl-alpha-D-glucopyranoside as substrate preincubated for 20 mins followed by substrate addition and measured after 30 mins by UV-visible spectrophotometric analysis. More on the design: species or system Homo sapiens.
In assay [2] the target is T1, Alpha-glucosidase (Saccharomyces cerevisiae S288c, UniProt P53341+P38158+P07265). Briefly: Inhibition of Saccharomyces cerevisiae alpha-glucosidase using p-nitrophenyl-alpha-D-glucopyranoside as substrate preincubated for 15 mins followed by substrate addition and measured after 30 mins by multiplate reader analysis. Format: protein assay.
Assay [3] has as its target T1, Alpha-glucosidase. Briefly: Inhibition of Saccharomyces cerevisiae alpha-glucosidase using p-nitrophenyl-alpha-D-glucopyranoside as substrate preincubated for 5 mins followed by substrate addition and measured after 5 mins by spectrophotometric analysis. Format: protein assay.
The target in assay [4] is T1, Alpha-glucosidase. As to the kind of experiment: Inhibition of Saccharomyces cerevisiae alpha-glucosidase using pNPG as substrate preincubated for 10 mins followed by substrate addition and measured after 20 mins by spectrophotometric analysis. Format: protein assay.
For assay [5], the target named is Alpha-glucosidase (Saccharomyces cerevisiae S288c) (UniProt P53341+P38158+P07265). As to the kind of experiment: Potency index, ratio of acarbose IC50 to test compound IC50 for inhibition of Saccharomyces cerevisiae alpha-glucosidase using pNPG as substrate preincubated for 10 mins followed by substrate addition and measured after 20 mins by spectrophotometric analysis. Format: protein assay. Conditions: time 30.0 min.

In assay [6] the target is T1, Alpha-glucosidase. As to the kind of experiment: Competitive inhibition of Saccharomyces cerevisiae alpha-glucosidase using pNPG as substrate assessed as inhibition constant preincubated for 10 mins followed by substrate addition and measured after 20 mins by spectrophotometric analysis. Type of assay: protein assay.
Assay [7] can be described thus: Inhibition of alpha-glucosidase (unknown origin) using p-NPG as substrate preincubated for 5 mins followed by substrate addition and measured after 30 mins by absorbance based analysis. More on the design: species or system Homo sapiens.
The species named for assay [8] is Homo sapiens. As to the kind of experiment: Potency index, ratio of acarbose IC50 to test compound IC50 for inhibition of alpha-glucosidase (unknown origin) using p-NPG as substrate preincubated for 5 mins followed by substrate addition and measured after 30 mins by absorbance based analysis. The settings on record: time 35.0 min.
The target of assay [9] is T1, Alpha-glucosidase. As to the kind of experiment: Inhibition of Saccharomyces cerevisiae alpha-glucosidase using p-nitrophenyl-alpha-D-glucopyranoside as substrate preincubated for 5 mins followed by substrate addition and measured after 15 mins by absorbance based microplate reader analysis. Type of assay: protein assay.
The nature of assay [10]: Inhibition of alpha-glucosidase (unknown origin) using pNPG as substrate preincubated for 15 mins followed by substrate addition and measured after 15 mins by spectrophotometric analysis. On the set-up: species or system Homo sapiens.
The target of assay [11] is T1, Alpha-glucosidase. As to the kind of experiment: Inhibition of Saccharomyces cerevisiae alpha-glucosidase using p-nitrophenyl-alpha-D-glucopyranoside as substrate preincubated for 10 mins followed by substrate addition and measured after 30 mins by spectrophotometric analysis. Type of assay: protein assay.
The target in assay [12] is T1, Alpha-glucosidase. Briefly: Non-competitive inhibition of Saccharomyces cerevisiae alpha-glucosidase using p-nitrophenyl-alpha-D-glucopyranoside as substrate assessed as inhibition constant preincubated for 10 mins followed by substrate addition and measured after 30 mins by spectrophotometric analysis. Format: protein assay.
The nature of assay [13]: Inhibition of rat intestinal alpha-glucosidase.
The target of assay [14] is T1, Alpha-glucosidase. Briefly: Inhibition of Saccharomyces cerevisiae alpha-glucosidase using p-nitrophenyl-alpha-D-glucopyranoside as substrate assessed as inhibition constant preincubated for 10 mins followed by substrate addition and measured by spectrophotometric analysis. Type of assay: protein assay.
Assay [15] addresses T1, Alpha-glucosidase. As to the kind of experiment: Inhibition of Saccharomyces cerevisiae alpha-glucosidase using p-nitrophenyl-alpha-D-glucopyranoside as substrate preincubated for 10 mins followed by substrate addition and measured by spectrophotometric analysis. Format: protein assay.
A short description of assay [16]: Inhibition of alpha-glucosidase (unknown origin) using p-nitro phenyl glucopyranoside as substrate preincubated for 15 mins followed by substrate addition and measured after 30 mins by absorbance based analysis. More on the design: species or system Homo sapiens.
The species entered for assay [17] is Homo sapiens. Briefly: Potency index, ratio of acarbose IC50 to test compound IC50 for inhibition of alpha-glucosidase (unknown origin) using p-nitrophenyl glucopyranoside as substrate preincubated for 10 mins followed by substrate addition and measured after 30 mins by absorbance based analysis. Conditions: time 40.0 min.
Assay [18] in a line: Inhibition of alpha-glucosidase (unknown origin) using p-nitrophenyl glucopyranoside as substrate preincubated for 10 mins followed by substrate addition and measured after 30 mins by absorbance based analysis. On the set-up: species or system Homo sapiens.
A short description of assay [19]: Inhibition of alpha-glucosidase (unknown origin) using pNPG as substrate assessed as inhibition constant by spectrophotometric analysis. On the set-up: species or system Homo sapiens.
A short description of assay [20]: Inhibition of alpha-glucosidase (unknown origin) using pNPG as substrate by spectrophotometric analysis. More on the design: species or system Homo sapiens.
A short description of assay [21]: Inhibition of Saccharomyces cerevisiae alpha-glucosidase type I using p-nitrophenyl-alpha-D-glucopyranoside as substrate preincubated for 10 mins followed by substrate addition and measured after 20 mins by spectrophotometric analysis.

As usually defined, the IC50 is the concentration that gives 50% inhibition. As to `CCOC(=O)c1c(C)n(C2CC2)c2ccc(OCc3nnc(-c4ccc(O)cc4)[nH]3)cc12`, the IC50 in assay [1] came out at 30 µM.

For the compound `O=C(Cn1cc(Cn2c3ccccc3c3ccccc32)nn1)c1ccc(O)c(Br)c1`, in [2], the IC50 was 1 µM.

`CCCSc1nnc(C(C)c2ccc3cc(OC)ccc3c2)n1-c1ccc(Cl)c(Cl)c1` (stereo unspecified): the IC50 in assay [3] came to 1.1 µM.

In general, Ki refers to a dissociation constant, usually derived from enzyme kinetics or from competition with a known ligand. `O=C(N/N=C/c1cn(-c2ccccc2)nc1-c1ccc([N+](=O)[O-])cc1)c1cc2ccccc2o1` yielded an IC50 in assay [4] of 40.6 µM. Further, the Ratio IC50 in assay [5] is 18. Moreover, the Ki in assay [6] amounted to 38 µM.

Regarding `Cc1ccccc1C(=O)/N=c1\scc(C)n1-c1cc(Cl)c(Cl)cc1Cl`, the IC50 in [7] came out at 0.15 µM. Also, the Ratio IC50 in assay [8] was found to be 255.

Compound `O=C(c1ccc(O)cc1)C1Cc2c(ccc3ccccc23)O1` (stereo unspecified) registered an IC50 in assay [9] of 6.5 µM.

In assay [10], `Cc1nn(-c2ccccc2)c(Cl)c1C1Nc2ccccc2C(=O)N1c1ccc(O)cc1` (stereo unspecified) returned an IC50 of 2.6 µM. That is a single-digit micromolar value.

`O=C(N/N=C/c1cc(Cl)cc(Cl)c1O)c1nc(-c2cc3ccccc3oc2=O)cs1`: the IC50 in assay [11] was 6.24 µM. The Ki in assay [12] was 6.86 µM.

Take `N[C@H]1C=C(CO)[C@@H](O)[C@H](O)[C@H]1O` [VALIENAMINE]: in assay [13], half-maximal inhibition (IC50) required 91 µM.

As for `COc1ccc(C2NC(=O)c3ccccc3N2)cc1` (stereo unspecified), in assay [14], the Ki worked out at 0.42 µM. For the same compound, the IC50 in assay [15] is 1.15 µM.

Consider `CCOC(=O)CN1C(=O)S/C(=C/c2ccc(-n3ccc4c(Br)ccnc43)cc2)C1=O`, for which the IC50 in assay [16] turned out to be 0.55 µM.

In the case of `O=C(NNS(=O)(=O)c1cc(Cl)c(Cl)cc1Cl)c1ccc2[nH]cc(C(c3ccccc3)c3c[nH]c4ccc(C(=O)NNS(=O)(=O)c5cc(Cl)c(Cl)cc5Cl)cc34)c2c1`, in [17], the Ratio IC50 came out at 8500. Besides, the IC50 in assay [18] came to 0.1 µM.

As to `NS(=O)(=O)c1ccc(Cc2nc(Cc3ccc(S(N)(=O)=O)cc3)nc(-c3cccc([N+](=O)[O-])c3)n2)cc1`, the Ki in assay [19] was determined as 41.7 µM. This compound displayed a half-maximal inhibitory concentration (IC50) in assay [20] of 41.7 µM.

As to `Clc1ccc(-n2c(-c3cn(-c4ccccc4)nc3-c3ccc(Br)cc3)nc(-c3ccccc3)c2-c2ccccc2)cc1`, in assay [21], 25.2 µM corresponded to half-maximal inhibition (IC50).
